The logP is the decadic logarithm of the partition coefficient of the neutral form, usually between octanol and water. A high value points to higher lipophilicity. Take `N#CCCN(CCO)c1ccc(N=Nc2ccc([N+](=O)[O-])cc2Cl)cc1`: the logP worked out at 4.
In turn, `CCn1c(O)c(N=Nc2ccc(Cl)cc2[N+](=O)[O-])c(C)c(C#N)c1=O` displayed a logP of 3.4.
For `CNc1cccc2c1C(=O)c1ccccc1C2=O`, the logP turned out to be 4.1.
In turn, `O=C1c2ccccc2C(=O)C1c1nc2ccccc2cc1O` came in with a logP of 5.
The molecule `CCN(CCO)c1ccc(N=Nc2ccc([N+](=O)[O-])cc2)cc1` yielded a logP of 4.3.
Next, `Cc1cc(N(CCO)CCO)ccc1N=Nc1ccc([N+](=O)[O-])cc1Cl`: 4.3; `Nc1ccc(N)c2c1C(=O)c1ccccc1C2=O`: 3.
Then `C=CCN(CCC#N)c1cc(NC(C)=O)c(N=Nc2c(Br)cc([N+](=O)[O-])cc2[N+](=O)[O-])cc1OC`, with 5.4; and `COc1cc(N=Nc2c(Br)cc([N+](=O)[O-])cc2[N+](=O)[O-])c(NC(C)=O)cc1N(CCOC(C)=O)CCOC(C)=O`, with 4.8; and `O=C1c2ccccc2C(=O)C1c1ccc2ccccc2n1`, with 4.1.
With `COc1cc(N)c2c(c1N)C(=O)c1ccccc1C2=O`, the logP was determined as 3.5.
The molecule `O=[N+]([O-])c1cc(S(=O)(=O)Nc2ccccc2)ccc1Nc1ccccc1` gave a logP of 4.6.

These data come from the OPERA property sets (Mansouri et al. 2018).
